The source of these data is patent US20140206992A1, “METHOD FOR DIAGNOSING CANCER” (THE UNIVERSITY OF TOKYO, priority 2010, published 2014).

The test system of test [1] is SHIN3 cells derived from human ovarian cancer (peritoneal dissemination model). Nature of the test: Live imaging of cancer model mouse using fluorescent endoscope. The note with it: 300 μL of 50 μM in PBS sprayed from endoscope tip. It counts as in vivo. An excerpt: (§1) Disseminated metastasis of ovarian cancer to the peritoneum is known as a generally-occurring lethal complication of ovarian cancer. Such metastasis to the peritoneum begins to occur at a relatively early stage of ovarian cancer, the tumor invades the […], and falls into the abdominal cavity, and as a result, the tumor metastasizes to the other organs in the abdominal cavity as seeds are scattered (dissemination metastasis). In order to experimentally reproduce this phenomenon, SHIN3 cells of ovarian cancer origin were intraperitoneally administered to athymic mice to prepare a peritoneal dissemination model (Neoplasia, 8, pp. 607-612, 2006).
The SHIN3 cells derived from human ovarian cancer were cultured at 37° C. in the RPMI 1640 medium containing 10% FBS, 100 U/mL of penicillin, and 100 μg/mL of streptomycin under 5% CO2. After the cells reached subconfluent, the cells were washed with PBS (phosphate buffered saline), and removed with Trypsin-EDTA so that individual cells were separated. The treated cells were centrifuged (100×g, 4° C., 3 minutes), and after the supernatant was discarded, ice-cooled PBS was added to the cells to suspend them at a cell density of 1×10^6 cells/300 μL. […]
A small hole was formed in the abdominal part of the peritoneal dissemination model mouse under isoflurane anesthesia, a fluorescence endoscope was inserted into the abdominal cavity through the hole, and 300 μL of a solution of Compound (2) (γGlu-RhoHM) in PBS (50 μM) was sprayed in a misty state from the tip of the endoscope. Then, an excitation light of 450 to 480 nm was irradiated, and fluorescence of 516 to 556 nm was observed over time to obtain fluorescence endoscope movies and images. In each of the results obtained immediately after the spray (0 sec), and 30 seconds, 60 seconds, 90 seconds, and 10 minutes after the spray, a white light image is shown on the left side, and a fluorescence image is shown on the right side. The “white light image” is an image obtained in a usual endoscope mode, not a fluorescence mode for comparison.

The test system of test [2] is LAP. Nature of the test: Enzyme specificity: reaction with LAP. It counts as biochemical. As to the method: Enzyme specificity of Compound (2) was examined. The DMSO solution (5 mM) in a volume of 3 μL was dissolved in 3 mL of a 0.1 M sodium phosphate buffer (pH 7.4) at a final concentration of 5 μM, and LAP (0.4 U) was added to the solution to perform the enzymatic reaction at 37° C.

Test [3] relates to SHIN3 cells derived from human ovarian cancer (peritoneal dissemination model). Nature of the test: Fluorescence imaging using cancer model mouse (peritoneal dissemination model). The note with it: 300 μL of 50 μM in PBS i.p., 30 minutes after administration, from outside the body and after abdominal section. It is filed as in vivo, athymic mice.
Excerpt: as §1, with “2006). […]” for “2006).”
A solution of Compound (2) (γGlu-RhoHM) in PBS (50 μM) in a volume of 300 μL was intraperitoneally (i.p.) administered to the peritoneal dissemination model mice. Fluorescence imaging was performed by irradiating an excitation light of 450 to 480 nm from the outside of the mouse body under anesthesia 30 minutes after the i.p. administration, and observing fluorescence of 516 to 556 nm. Further, after the mice were sacrificed with CO2 gas, and exsanguination was performed, abdominal section was performed with surgery appliances for small animals to expose the abdominal cavity, an excitation light of 445 to 490 nm was irradiated, and fluorescence was measured at every 10 nm from 520 to 800 nm to obtain fluorescence spectrum images. […]

In test [4] the test system is γ-glutamyltranspeptidase (GGT, equine kidney). Nature of the test: Enzymatic reaction of the fluorescent probe with γ-glutamyltranspeptidase (GGT). It counts as biochemical. As to conditions: 5 μM compound, excitation 501 nm. As to the method: Compound (2) (γGlu-RhoHM) formed by binding the acyl residue derived from glutamic acid to one amino group of Compound (1) (RhoHM) was dissolved in a neutral phosphate buffer, and γ-glutamyltranspeptidase (GGT, equine kidney, SIGMA G9270-100UN) was reacted with the solution. Specifically, 3 μL of a […] of the compound in dimethyl sulfoxide (DMSO) was dissolved at a final concentration of 5 μM in 3 mL of a 0.1 M sodium phosphate buffer (pH 7.4), and GGT (1.1 U) was added for the enzymatic reaction at 37° C. The excitation wavelength was 501 nm.
The DMSO solution of the compound (5 mM) in a volume of 3 μL was dissolved in 3 mL of a 0.1 M sodium phosphate buffer (pH 7.4) at a final concentration of 5 μM, and the enzymatic reaction was performed at 37° C. The values of fluorescence intensity observed with each amount of the enzyme 9 minutes after the addition of the enzyme were plotted. The excitation wavelength was 501 nm, and the fluorescence emission wavelength was 524 nm.

As to `Nc1ccc2c(c1)Oc1cc(NC(=O)CC[C@H](N)C(=O)O)ccc1C21OCc2ccccc21` (some centres unmarked) [Compound (2), γGlu-RhoHM], the “time to specific fluorescence emission of the cancerous part” value in test [1] was “specifically emit fluorescence within several minutes”. Besides, the “cancerous tissue fluorescence images 10 minutes after spray” value in test [1] (10 minutes after the spray) is recorded as “cancerous tissues were clearly imaged”. The “cancerous tissue fluorescence images from immediately after spray to 90 seconds” value in test [1] (excitation 450 to 480 nm, fluorescence 516 to 556 nm) is “cancerous tissue images became clearer”. Also, the “increase of fluorescence intensity after reaction with LAP” value in test [2] (5 μM compound, 0.1 M sodium phosphate buffer pH 7.4, LAP 0.4 U, 37° C.) is listed as “increase of fluorescence intensity was not observed”. Further, the “enzyme specificity (GGT versus LAP)” value in test [2] (conclusion from the reactions with LAP (Example 3) and GGT (Example 2)) is recorded as “specifically detected GGT”. Moreover, in test [3], the “fluorescence of cancer sites in imaging” value is on record as “strong green fluorescence was observed in a cancer site-specific manner”. Besides, the “change of absorption and fluorescence intensity after reaction with GGT” value in test [4] (0.1 M sodium phosphate buffer pH 7.4, GGT 1.1 U, 37° C.) is “remarkable elevations of absorption and fluorescence intensity were immediately observed”. Besides, the “fluorescence intensity versus added GGT amount” value in test [4] (pH 7.4, 37° C., 9 minutes after addition of enzyme, emission 524 nm) was “linear increase of fluorescence intensity in an added GGT amount-dependent manner”.
